Measurements taken from patent US20250059198A1, “BRM DEGRADING COMPOUNDS AND ASSOCIATED METHODS OF USE” (Arvinas Operations, Inc., priority 2021, published 2025).

Biological target: T1, BRM (Homo sapiens, UniProt P51531)
T1 construct: Western Blot Screen of BRM Degradation in SW1573 Cells; endogenous in cells; host or cells: SW1573 cells
Test: BRM degradation (Dmax and DC50) in SW1573 cells, Western blot screen / In-Cell Western screen
Assay type: cell-based
Conditions: overnight (18-20 hours) treatment; for Dmax: read-out: Dmax (%)** (% degraded)
Procedure, shortened: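 Dmax and DC50 were derived from BRM levels normalised to an alpha-tubulin control, measured by chemiluminescent Western blotting of lysates or by PFA-fixed In-Cell Western on LI-COR Odyssey. SW1573 cells received compound overnight (18–20 h, 0.1% DMSO final).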

T1 sequence (P51531 whole entry): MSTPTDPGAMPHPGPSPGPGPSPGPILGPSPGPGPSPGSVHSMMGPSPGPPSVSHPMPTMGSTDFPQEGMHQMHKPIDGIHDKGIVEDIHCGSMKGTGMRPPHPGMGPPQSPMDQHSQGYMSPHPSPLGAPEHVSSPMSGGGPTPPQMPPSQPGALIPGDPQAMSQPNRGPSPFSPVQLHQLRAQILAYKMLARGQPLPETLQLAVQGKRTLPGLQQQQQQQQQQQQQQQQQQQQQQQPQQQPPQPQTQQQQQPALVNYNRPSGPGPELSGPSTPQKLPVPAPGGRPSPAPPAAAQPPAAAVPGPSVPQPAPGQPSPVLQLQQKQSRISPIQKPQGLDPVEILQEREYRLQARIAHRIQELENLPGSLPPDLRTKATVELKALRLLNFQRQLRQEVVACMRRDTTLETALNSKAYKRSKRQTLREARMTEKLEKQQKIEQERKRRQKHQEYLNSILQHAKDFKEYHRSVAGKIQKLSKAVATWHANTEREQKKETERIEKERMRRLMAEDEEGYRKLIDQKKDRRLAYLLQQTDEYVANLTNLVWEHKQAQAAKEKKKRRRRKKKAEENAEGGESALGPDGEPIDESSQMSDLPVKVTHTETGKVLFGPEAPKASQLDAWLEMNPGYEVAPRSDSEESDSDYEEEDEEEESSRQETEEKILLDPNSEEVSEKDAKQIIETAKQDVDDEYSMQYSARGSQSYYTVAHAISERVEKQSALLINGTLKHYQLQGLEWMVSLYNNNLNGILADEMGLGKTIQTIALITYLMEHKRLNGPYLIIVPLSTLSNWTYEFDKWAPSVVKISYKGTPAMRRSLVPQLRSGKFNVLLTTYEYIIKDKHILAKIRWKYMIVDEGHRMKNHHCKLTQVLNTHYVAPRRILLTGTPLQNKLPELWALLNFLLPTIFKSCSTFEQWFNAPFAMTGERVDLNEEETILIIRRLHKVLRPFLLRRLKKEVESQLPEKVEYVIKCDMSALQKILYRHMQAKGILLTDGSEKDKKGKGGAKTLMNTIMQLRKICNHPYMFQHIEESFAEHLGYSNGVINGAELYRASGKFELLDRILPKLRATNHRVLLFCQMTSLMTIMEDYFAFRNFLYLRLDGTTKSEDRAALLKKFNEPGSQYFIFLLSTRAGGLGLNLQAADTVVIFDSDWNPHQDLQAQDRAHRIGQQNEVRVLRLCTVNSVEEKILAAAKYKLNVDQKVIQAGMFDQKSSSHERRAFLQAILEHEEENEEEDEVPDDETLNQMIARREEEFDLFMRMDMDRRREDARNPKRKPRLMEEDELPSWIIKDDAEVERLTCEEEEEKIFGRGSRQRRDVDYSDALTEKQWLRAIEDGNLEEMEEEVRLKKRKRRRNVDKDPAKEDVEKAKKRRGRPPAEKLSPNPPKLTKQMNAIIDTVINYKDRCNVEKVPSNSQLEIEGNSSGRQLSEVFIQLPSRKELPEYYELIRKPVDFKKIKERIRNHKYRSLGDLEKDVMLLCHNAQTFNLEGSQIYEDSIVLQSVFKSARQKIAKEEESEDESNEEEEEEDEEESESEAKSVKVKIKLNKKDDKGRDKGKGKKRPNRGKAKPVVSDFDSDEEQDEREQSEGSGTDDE

Row | Compound | DC50 [nM] | Dmax [%]
1 | CC(C)[C@@H](C(=O)N1C[C@H](O)C[C@H]1C(=O)N[C@@H](C)c1ccc(C#N)cc1)c1cc(N2CCC(CN3CCC(O[C@H]4C[C@H](N5CCC(C(C)n6cc(C#Cc7cc(-c8ccccc8O)nnc7N)cn6)CC5)C4)CC3)CC2)no1 (stereo partly drawn) [Compound 78, (2S,4R)-N-[(1S)-1-(4-cyanophenyl)ethyl]-4-hydroxy-1-[(2R)-3-methyl-2-{3-[4-({4-[(1r,3r)-3-{4-[1-(4-{2-[3-amino-6-(2-hydroxyphenyl)pyridazin-4-yl]ethynyl}-1H-pyrazol-1-yl)ethyl]piperidin-1-yl}cyclobutoxy]piperidin-1-yl}methyl)piperidin-1-yl]-1,2-oxazol-5-yl}butanoyl]pyrrolidine-2-carboxamide] | 2.5 to 10 | > 75
2 | CC(C)[C@@H](C(=O)N1C[C@H](O)C[C@H]1C(=O)N[C@@H](C)c1ccc(-c2ccnn2C)cc1)c1cc(N2CCC(CN3CCC(O[C@H]4C[C@H](N5CCOC6(CCN(c7cc(-c8ccccc8O)nnc7N)CC6)C5)C4)CC3)CC2)no1 [Compound 28, (2S,4R)-4-hydroxy-N-[(1S)-1-[4-(1-methyl-1H-pyrazol-5-yl)phenyl]ethyl]-1-[(2R)-3-methyl-2-{3-[4-({4-[(1r,3r)-3-{9-[3-amino-6-(2-hydroxyphenyl)pyridazin-4-yl]-1-oxa-4,9-diazaspiro[5.5]undecan-4-yl}cyclobutoxy]piperidin-1-yl}methyl)piperidin-1-yl]-1,2-oxazol-5-yl}butanoyl]pyrrolidine-2-carboxamide] | < 2.5 | > 75
3 | Cc1ncsc1-c1ccc([C@H](C)NC(=O)[C@@H]2C[C@@H](O)CN2C(=O)[C@@H](c2cc(OCCN3CCN(CCOc4cc(N5C6CCC5CN(c5cc(-c7ncccc7O)nnc5N)C6)ccn4)[C@H](C)C3)no2)C(C)C)cc1 [Compound 149, (2S,4R)-1-[(2R)-2-(3-{2-[(3R)-4-{2-[(4-{3-[3-amino-6-(3-hydroxypyridin-2-yl)pyridazin-4-yl]-3,8-diazabicyclo[3.2.1]octan-8-yl}pyridin-2-yl)oxy]ethyl}-3-methylpiperazin-1-yl]ethoxy}-1,2-oxazol-5-yl)-3-methylbutanoyl]-4-hydroxy-N-[(1S)-1-[4-(4-methyl-1,3-thiazol-5-yl)phenyl]ethyl]pyrrolidine-2-carboxamide] | ≥ 30 | 
4 | Cc1ncsc1-c1ccc([C@H](C)NC(=O)[C@@H]2C[C@@H](O)CN2C(=O)[C@@H](c2cc(N3CCC(CN4CCC(O[C@H]5C[C@H](N6CCN(CC7C8CCC7CN(c7cc(-c9ccccc9O)nnc7N)C8)CC6)C5)CC4)CC3)no2)C(C)C)cc1 (stereo partly drawn) [Compound 47, (2S,4R)-4-hydroxy-N-[(1S)-1-[4-(4-methyl-1,3-thiazol-5-yl)phenyl]ethyl]-1-[(2R)-3-methyl-2-{3-[4-({4-[(1r,3r)-3-[4-({3-[3-amino-6-(2-hydroxyphenyl)pyridazin-4-yl]-3-azabicyclo[3.2.1]octan-8-yl}methyl)piperazin-1-yl]cyclobutoxy]piperidin-1-yl}methyl)piperidin-1-yl]-1,2-oxazol-5-yl}butanoyl]pyrrolidine-2-carboxamide] | 2.5 to 10 | > 75
5 | Cc1ncsc1-c1ccc([C@H](C)NC(=O)[C@@H]2C[C@@H](O)CN2C(=O)[C@@H](c2cc(N3CCC(CN4CCC5(CC4)CC(N4CCOC6(CN(CC7C8CCC7CN(c7cc(-c9ccccc9O)nnc7N)C8)C6)C4)C5)CC3)no2)C(C)C)cc1 (stereo partly drawn) [Compound 125, (2S,4R)-1-[(2R)-2-{3-[4-({2-[2-({3-[3-amino-6-(2-hydroxyphenyl)pyridazin-4-yl]-3-azabicyclo[3.2.1]octan-8-yl}methyl)-5-oxa-2,8-diazaspiro[3.5]nonan-8-yl]-7-azaspiro[3.5]nonan-7-yl}methyl)piperidin-1-yl]-1,2-oxazol-5-yl}-3-methylbutanoyl]-4-hydroxy-N-[(1S)-1-[4-(4-methyl-1,3-thiazol-5-yl)phenyl]ethyl]pyrrolidine-2-carboxamide] | < 2.5 | > 75
6 | CC(C)C(C(=O)N1C[C@H](O)C[C@H]1C(=O)N[C@@H](C)c1ccc(-c2ccnn2C)cc1)c1cc(OCC#Cc2ncc(O[C@H]3C[C@H](Oc4cc(N5CCN(c6cc(-c7ccccc7O)nnc6N)CC5)ccn4)C3)cn2)no1 (stereo partly drawn) [Compound 34, (2S,4R)-4-hydroxy-N-[(1S)-1-[4-(1-methyl-1H-pyrazol-5-yl)phenyl]ethyl]-1-(3-methyl-2-{3-[(3-{5-[(1r,3r)-3-[(4-{4-[3-amino-6-(2-hydroxyphenyl)pyridazin-4-yl]piperazin-1-yl}pyridin-2-yl)oxy]cyclobutoxy]pyrimidin-2-yl}prop-2-yn-1-yl)oxy]-1,2-oxazol-5-yl}butanoyl)pyrrolidine-2-carboxamide] | < 2.5 | > 75
7 | Cc1ncsc1-c1ccc([C@H](C)NC(=O)[C@@H]2C[C@@H](O)CN2C(=O)[C@@H](c2cc(N3CCC(CN4CC5(CC(N6CCO[C@H](CN7C8CCC7CN(c7cc(-c9ccccc9O)nnc7N)C8)C6)C5)C4)CC3)no2)C(C)C)cc1 [Compound 141, (2S,4R)-1-[(2R)-2-{3-[4-({6-[(2S)-2-({3-[3-amino-6-(2-hydroxyphenyl)pyridazin-4-yl]-3,8-diazabicyclo[3.2.1]octan-8-yl}methyl)morpholin-4-yl]-2-azaspiro[3.3]heptan-2-yl}methyl)piperidin-1-yl]-1,2-oxazol-5-yl}-3-methylbutanoyl]-4-hydroxy-N-[(1S)-1-[4-(4-methyl-1,3-thiazol-5-yl)phenyl]ethyl]pyrrolidine-2-carboxamide] | < 2.5 | > 75
8 | Cc1ncsc1-c1ccc([C@H](C)NC(=O)[C@@H]2C[C@@H](O)CN2C(=O)[C@@H](c2cc(N3CCC(OC(=O)N4CCC(Oc5cc(N6C7CCC6CN(c6cc(-c8ccccc8O)nnc6N)C7)ccn5)CC4)CC3)no2)C(C)C)cc1 [Compound 128, 1-(5-((R)-1-((2S,4R)-4-hydroxy-2-(((S)-1-(4-(4-methylthiazol-5-yl)phenyl)ethyl)carbamoyl)pyrrolidin-1-yl)-3-methyl-1-oxobutan-2-yl)isoxazol-3-yl)piperidin-4-yl 4-((4-(3-(3-amino-6-(2-hydroxyphenyl)pyridazin-4-yl)-3,8-diazabicyclo[3.2.1]octan-8-yl)pyridin-2-yl)oxy)piperidine-1-carboxylate] | < 2.5 | > 75
9 | Cc1ncsc1-c1ccc([C@H](C)NC(=O)[C@@H]2C[C@@H](O)CN2C(=O)[C@@H](c2cc(N3CCC(CN4CCC(O[C@H]5C[C@H](N6CCO[C@H](CN7C8CCC7CN(c7cc(-c9ccccc9O)nnc7N)C8)C6)C5)CC4)CC3)no2)C(C)C)cc1 [Compound 23, (2S,4R)-4-hydroxy-N-[(1S)-1-[4-(4-methyl-1,3-thiazol-5-yl)phenyl]ethyl]-1-[(2R)-3-methyl-2-{3-[4-({4-[(1r,3r)-3-[(2S)-2-({3-[3-amino-6-(2-hydroxyphenyl)pyridazin-4-yl]-3,8-diazabicyclo[3.2.1]octan-8-yl}methyl)morpholin-4-yl]cyclobutoxy]piperidin-1-yl}methyl)piperidin-1-yl]-1,2-oxazol-5-yl}butanoyl]pyrrolidine-2-carboxamide] | < 2.5 | > 75
10 | Cc1ncsc1-c1ccc([C@H](C)NC(=O)[C@@H]2C[C@@H](O)CN2C(=O)[C@H](c2cc(N3CCC(O[C@H]4CC[C@H](Oc5cc(N6C7CCC6CN(c6cc(-c8ccccc8O)nnc6N)C7)ccn5)CC4)CC3)no2)C(C)C)cc1 [Compound 135, (2S,4R)-4-hydroxy-N-[(1S)-1-[4-(4-methyl-1,3-thiazol-5-yl)phenyl]ethyl]-1-[(2S)-3-methyl-2-[3-(4-{[(1r,4r)-4-[(4-{3-[3-amino-6-(2-hydroxyphenyl)pyridazin-4-yl]-3,8-diazabicyclo[3.2.1]octan-8-yl}pyridin-2-yl)oxy]cyclohexyl]oxy}piperidin-1-yl)-1,2-oxazol-5-yl]butanoyl]pyrrolidine-2-carboxamide] | ≥ 30 | 
11 | Cc1ncsc1-c1ccc([C@H](C)NC(=O)[C@@H]2C[C@@H](O)CN2C(=O)[C@@H](c2cc(N3CCC(O[C@H]4CC[C@@H](Oc5cc(N6C7CCC6CN(c6cc(-c8ccccc8O)nnc6N)C7)ccn5)CC4)CC3)no2)C(C)C)cc1 [Compound 80, (2S,4R)-4-hydroxy-N-[(1S)-1-[4-(4-methyl-1,3-thiazol-5-yl)phenyl]ethyl]-1-[(2R)-3-methyl-2-[3-(4-{[(1s,4s)-4-[(4-{3-[3-amino-6-(2-hydroxyphenyl)pyridazin-4-yl]-3,8-diazabicyclo[3.2.1]octan-8-yl}pyridin-2-yl)oxy]cyclohexyl]oxy}piperidin-1-yl)-1,2-oxazol-5-yl]butanoyl]pyrrolidine-2-carboxamide] | < 2.5 | > 75
12 | CC(C)[C@H](C(=O)N1C[C@H](O)C[C@H]1C(=O)N[C@@H](C)c1ccc(C#N)cc1)c1cc(N2CCC(OCCN3CCC(Oc4cc(N5C6CCC5CN(c5cc(-c7ccccc7O)nnc5N)C6)ccn4)CC3)CC2)no1 [Compound 150, (2S,4R)-1-[(2S)-2-{3-[4-(2-{4-[(4-{3-[3-amino-6-(2-hydroxyphenyl)pyridazin-4-yl]-3,8-diazabicyclo[3.2.1]octan-8-yl}pyridin-2-yl)oxy]piperidin-1-yl}ethoxy)piperidin-1-yl]-1,2-oxazol-5-yl}-3-methylbutanoyl]-N-[(1S)-1-(4-cyanophenyl)ethyl]-4-hydroxypyrrolidine-2-carboxamide] | ≥ 30 | 
13 | Cc1ncsc1-c1ccc([C@H](C)NC(=O)[C@@H]2C[C@@H](O)CN2C(=O)[C@@H](c2cc(N3CCC(CN4CC[C@@H](OC(=O)N5CCN(c6cc(-c7ccccc7O)nnc6N)CC5)[C@@H](F)C4)CC3)no2)C(C)C)cc1 [Compound 101, (3S,4R)-3-fluoro-1-[(1-{5-[(2R)-1-[(2S,4R)-4-hydroxy-2-{[(1S)-1-[4-(4-methyl-1,3-thiazol-5-yl)phenyl]ethyl]carbamoyl}pyrrolidin-1-yl]-3-methyl-1-oxobutan-2-yl]-1,2-oxazol-3-yl}piperidin-4-yl)methyl]piperidin-4-yl 4-[3-amino-6-(2-hydroxyphenyl)pyridazin-4-yl]piperazine-1-carboxylate] | < 2.5 | > 75
